Laboratory results as given in EP0340198B1, “Immunoassay for the detection of alpha-haloacetamides” (priority 1988, dated 1989).

Columns and labels:
[1] = tested on: affinity column prepared from the serum of the first bleed of the rabbit immunized with the alachlor-IgG conjugate; assay: affinity column extraction of alachlor and analogs from human urine; format: binding
Procedure: Affinity Chromatography. The preparation of affinity columns using rabbit antisera was as follows: The rabbit IgG's were purified by passing 5 mL of the antiserum through a column containing 5 mL of the swelled protein A-agarose gel. By monitoring the absorbance at 280 nm in the column effluent, the non-bound proteins were removed by washing with PBS, and the IgG's were then eluted with acetic acid at pH 2.3 (0.58% acetic acid and 0.15 M NaCl). […] The reusable protein A-agarose column was stored in PBS containing 0.02% sodium azide at 4°C.
The protein A-purified IgG was immobilized onto Affigel-10 affinity support. Affigel-10 (5 mL) was washed 3 times with isopropyl alcohol and 3 times with cold distilled water in a Buchner funnel. The gel was then added to a solution of IgG (3 mL in 0.1 M HEPES buffer, pH 7.5) at 4°C. Following 4 hrs of stirring, the gel was precipitated by gentle centrifugation and washed with HEPES buffer (3 x 3 mL). The remaining active sites on the gel were blocked by resuspending the gel in water (2 mL) and adding ethanolamine HCl (0.5 mL, 1M), and stirring the mixture at 22°C for 1 hr. […] After binding the alachlor, the column was washed with water (2 mL/min) to remove unbound material and alachlor was eluted with 75% aqueous methanol.

[2] = tested on: antibodies toward amidochlor; assay: inhibition ELISA for amidochlor; format: binding, rabbits; details: standard solutions at 10 and 50 ppb in DI water
Excerpt: (§1) The generation of antibodies toward butachlor (2-chloro-2′,6′-diethyl-N-(butoxymethyl)acetanilide), amidochlor (2-chloro-2′,6′-diethyl-N-acetamidomethyl acetanilide), and metolachlor (2-chloro-2′-ethyl-6′-methyl-N-(2-methoxy-1-methylethyl)acetanilide) were accomplished following identical procedures as those described for alachlor. The individual 14C-labeled chloroacetanilide was covalently bound to HSA (human serum albumin) with AHT, and to sheep IgG with AMSA.
(§2) The hapten-IgG conjugates were used to immunize rabbits. The corresponding hapten-BSA conjugates were then utilized in checkerboard assays to determine the presence of desired antibodies in the antisera. An inhibition ELISA for butachlor was set up with antiserum, butachlor-HSA screening antigen, and butachlor. Similar assays were also set up for amidochlor and metolachlor.
(§3) The sensitivity of the inhibition ELISA for butachlor, amidochlor, and metolachlor was tested with respective standards prepared in DI water. Using the best antiserum, the butachlor ELISA produced an IC50 of 8 ppb.
(§4) The specificity of the ELISA for butachlor, amidochlor, and metolachlor were tested using standard solutions of alachlor, acetochlor, butachlor, amidochlor, metolachlor, and propachlor at concentrations of 10 and 50 ppb in DI water. At these concentrations, the ELISA assay for butachlor, amidochlor, and metolachlor was each inhibited only by the respective free hapten, and not by any of the other chloroacetanilides.

[3] = tested on: alachlor antibodies; assay: inhibition ELISA for alachlor (cross-reactivity studies); format: binding, rabbit; details: for ELISA % Absorbance MEAN (n = 20): antisera from bleed seven; for reaction (cross-reactivity) with the antibodies, in words: relative to alachlor
Procedure: Immunoassays. A known "checkerboard assay" was initially conducted with each serum sample after the first boost to detect the production of antibodies against alachlor. […] The next 7 rows received the subsequent dilutions of the screening antigen. The plate was covered with Parafilm and stored overnight at 4°C. The next morning, the unbound screening antigen was removed from the wells by washing three times with phosphate buffered saline solution (0.01 M phosphate buffer of pH 7.4, 0.15 M NaCl; PBS). The remaining active sites in the wells were blocked with PBS-8% non-fat dry milk solution, (NFDM, 0.3 mL) for 1 hr at 22°C. Serum, which had been stored at -20°C, was freshly thawed and serially diluted (one to two) from 1,000 to 64,000-fold using PBS-T (PBS containing 0.02% Tween 20). Starting with the most concentrated solution, 0.1 mL of the serum solution was pipetted into all 8 wells of column 1; the remaining columns received the subsequent dilutions of the serum solution. The plate was covered and incubated at 22°C for 1.5 hrs. Following triplicate washes of the wells with PBS-T, each of the wells received 0.1 mL of goat anti-rabbit gamma-globulin conjugated to horseradish peroxidase (GAR-HRP) freshly thawed and diluted 4,000 fold with PBS-1% NFDM. After a final wash cycle (4 times) with PBS-T, freshly prepared O-phenylene diamine (PDA) substrate solution (0.2 mL, 0.04 mg/mL PDA and 0.01% H₂O₂ in 0.05 M citric acid and 0.15 M sodium dibasic phosphate, pH 5.0) was dispensed into each of the wells and incubated in the dark at 22°C for 30-60 min. Sulfuric acid (4 N, 50 µL) was added to each of the wells to stop the reaction, and the final absorbances of the wells (490 nm) were recorded.
The inhibition ELISA required one additional step in the assay procedure described above. Equal volumes of the diluted serum and aqueous alachlor standard or unknown sample were mixed and preincubated at 22°C for 1 hr. This mixture (0.1 mL/well) was then analyzed in 6 replicate wells on the plate. The presence of free alachlor inhibited the binding of the antibody to the alachlor-BSA conjugate, resulting in an inhibition of the development of absorbance at 490 nm. The amount of free alachlor was indirectly proportional to the intensity of color developed. Levels of alachlor in unknown water samples were calculated based on the alachlor standards on the same plate. Alachlor standards (0, 0.2, 0.5, 1.0, 3.0, 5.0, and 8.0 ppb in deionized water) were stored at -20°C in 1-mL portions, and were freshly thawed for each assay.
Data Calculations. The lay-out of a typical 96-well microtiter plate is 8 rows of 12 columns in an inhibition ELISA assay for alachlor. The first 6 wells in the first column of wells were not coated with the screening antigen and served as the background wells. The first 6 wells in the remaining 7 columns of wells were reserved for the seven alachlor standards (0 to 8 ppb) listed above. The remaining wells in all 8 rows were used for the samples. The uncorrected absorbances of the wells determined by the Bio-tek reader were used in the following calculations. The median was calculated for the 6 replicate background wells and was then subtracted from the medians of the standards and samples. All the median values were divided by the median of the standard without alachlor (0 ppb) to generate percentages of absorbances. The percent absorbance of the alachlor standards was then plotted on the Y axis against the logarithm (base 10) of the actual concentrations of alachlor on the X axis. A hyperbolic curve was drawn through the standards, and the resulting standard curve was used to calculate the concentrations of alachlor in the unknown samples.
The calculations described above were usually carried out using a computer program.

[4] = tested on: antibodies toward metolachlor; assay: inhibition ELISA for metolachlor; format: binding, rabbits; details: standard solutions at 10 and 50 ppb in DI water
Excerpt: as §1, §2, §3, §4

CCc1cccc(CC)c1N(COC)C(=O)CCl [Alachlor, α-chloro-2′,6′-diethyl-N-methoxymethyl acetanilide]
% 14C Eluent (75% CH3OH) ([1]; 0.1 µg/2 mL human urine): 123.0% | % 14C Wash (H2O) ([1]; 0.1 µg/2 mL human urine): 20.0% | % 14C Eluent (75% CH3OH) ([1]; 0.6 µg/2 mL human urine): 69.0% | % 14C Wash (H2O) ([1]; 0.6 µg/2 mL human urine): 11.0% | % 14C Eluent (75% CH3OH) ([1]; 1.4 µg/2 mL human urine): 48.0% | % 14C Wash (H2O) ([1]; 1.4 µg/2 mL human urine): 37.0% | inhibition of the ELISA assay for amidochlor [2]: not | ELISA % Absorbance MEAN (n = 20) ([3]; Alachlor Conc. 0.2 ppb): 78.1% | ELISA % Absorbance MEAN (n = 20) ([3]; Alachlor Conc. 0.5 ppb): 55.3% | ELISA % Absorbance MEAN (n = 20) ([3]; Alachlor Conc. 1.0 ppb): 37.4% | ELISA % Absorbance MEAN (n = 20) ([3]; Alachlor Conc. 3.0 ppb): 22.9% | ELISA % Absorbance MEAN (n = 20) ([3]; Alachlor Conc. 5.0 ppb): 17.7% | ELISA % Absorbance MEAN (n = 20) ([3]; Alachlor Conc. 8.0 ppb): 11.3% | percent cross-reactivity ([3]; IC50 of alachlor divided by IC50 of analog x 100, bleed not stated): 100% | inhibition of the ELISA assay for metolachlor [4]: not

CC(C)N(C(=O)CCl)c1ccccc1 [Propachlor, propachlor]
% 14C Eluent (75% CH3OH) ([1]; 1.2 µg/2 mL human urine): 11.0% | % 14C Wash (H2O) ([1]; 1.2 µg/2 mL human urine): 88.0% | inhibition of the ELISA assay for amidochlor [2]: not | reaction (cross-reactivity) with the antibodies, in words [3]: little to no interaction | inhibition of the ELISA assay for metolachlor [4]: not

CCOCN(C(=O)CCl)c1c(C)cccc1CC [Acetochlor, acetochlor]
% 14C Eluent (75% CH3OH) ([1]; 1.0 µg/2 mL human urine): 38.0% | % 14C Wash (H2O) ([1]; 1.0 µg/2 mL human urine): 61.0% | inhibition of the ELISA assay for amidochlor [2]: not | percent cross-reactivity ([3]; bleed four): 10% | cross-reactivity in the subsequent bleeds ([3]; bleeds after bleed four): decreased slightly | reaction (cross-reactivity) with the antibodies, in words [3]: little to no interaction | inhibition of the ELISA assay for metolachlor [4]: not
